According to US20250302797A1, “COMBINATION THERAPIES FOR TREATING INFLAMMATION” (Flagship Pioneering Innovations VI, LLC, priority 2022, published 2025):

What was measured:
[1] = test system: oxazolone-induced ear swelling in mice; test: Oxazolone-induced dermatitis mouse model: ear thickness; format: in vivo, BALB/c mice; conditions: topical 20 μL, 5 mg/mL, 30 minutes before and 15 minutes after oxazolone challenge; measured at 24 hours
Protocol: (§1) Male BALB/c mice weighing 22±2 g are used and randomly divided into groups of 5 each. Sham treatment group receive no oxazolone sensitization and challenge, but PBS, plus treated with vehicle (Acetone:ethanol 1:1). All other groups' animals were sensitized by applying oxazolone (100 μL, 1.5% in acetone) onto their preshaved abdominal surface on Day 0, and challenged by oxazolone (1%, 20 μL/ear) seven (7) days later. 20 μL of either Vehicle, Dexamethasone (5 mg/mL; anti-inflammatory positive control), or a combination of Luteolin (1.6-9.6 mg/mL)+Gamma-mangostin (1.2-7.2 mg/mL) were applied topically to the anterior and posterior surfaces of the right ear 30 minutes before and 15 minutes after oxazolone challenge. Left ear was unstimulated and treated as a control.
(§2) The right and left ear thickness of each mouse were measured at 24 hours after oxazolone challenge as an index of inflammation. The right ear was harvested and snap frozen for cytokine gene expression analysis.

[2] = test system: cytokine gene expression in ears of mice stimulated with oxazolone; test: Oxazolone-induced dermatitis mouse model: cytokine gene expression in ear; format: in vivo, BALB/c mice; conditions: right ear; topical; Dexamethasone 5 mg/mL or Luteolin (1.6-9.6 mg/mL)+Gamma-mangostin (1.2-7.2 mg/mL)
Protocol: as §1, §2

LPS-injected mice = test: LPS-induced systemic inflammation mouse model: blood cytokine levels; format: in vivo, C57Bl/6 mice; conditions: intraperitoneal 1 hour prior to LPS (1 mg/kg); Dexamethasone 5 mg/kg or Luteolin+Gamma-mangostin 4+4.5 mg/kg; serum or plasma
Protocol: C57Bl/6 male mice, 6-8 weeks old, weighing 22±2 g were randomly divided into groups of 5-6 each. Sham animals were injected intra-peritoneally with PBS only. All other groups were intraperitoneally injected with either Vehicle control, Dexamethasone (5 mg/kg), or a combination of Luteolin+Gamma-mangostin (4+4.5 mg/kg) at 1 hour prior to injection with LPS (1 mg/kg), an agent known to trigger systemic inflammation. After LPS injection, blood was collected at different time points: 30 min, 2 h, 4 h and 24 h and the processed serum or plasma were used for further cytokine analysis through LUMINEX or Ella Automated Immunoassay System (Protein Simple).

[3] = test system: Differentiated THP-1 macrophages stimulated with IFN-gamma and LPS; test: THP1 cytokine secretion assay; format: cell-based, Human; conditions: for greatest IL6 inhibition to: IL6 secretion; for greatest TNFa inhibition to: TNFa secretion
Protocol: Human THP-1 cells were plated and differentiated into macrophages through treatment with phorbol 12-myristate 13-acetate and beta-mercaptoethanol for 72 hours. Differentiated THP-1 macrophages were then stimulated with IFN-gamma (20 ng/mL) and LPS (50 ng/mL) to induce an inflammatory response and co-treated with gamma-mangostin and/or luteolin at 0, 0.2, 0.5, 2, 5, 10 uM. Various secreted cytokines were measured from the media using the Ella Automated Immunoassay System (ProteinSimple).

[4] = Gamma-mangostin alone at 10 uM (0-10 uM tested)
[5] = Luteolin alone at 0.5 uM (0-10 uM tested)

In the case of C[C@@H]1C[C@H]2[C@@H]3CCC4=CC(=O)C=C[C@]4(C)[C@@]3(F)[C@@H](O)C[C@]2(C)[C@@]1(O)C(=O)CO [Dexamethasone], the “reduction in ear thickness compared to the Vehicle-treated ears” value [1] is reported as 29%, the “Ifng gene expression (% of Vehicle control)” value [2] is reported as 445% and the “Il1b gene expression (% of Vehicle control)” value [2] is reported as 5%. For the same compound, the “Il4 gene expression (% of Vehicle control)” value [2] was 24%, the “Il6 gene expression (% of Vehicle control)” value [2] was 33% and the “Il11 gene expression (% of Vehicle control)” value [2] was 55%. The “Il13 gene expression (% of Vehicle control)” value [2] was 20%, the “Tnfa gene expression (% of Vehicle control)” value [2] was 14% and the “CXCL1 level, % of the Vehicle” value (LPS-injected mice) was 57%. For the same compound, the “MIP1-beta level, % of the Vehicle” value (LPS-injected mice) was 29% and the “TNFa level, % of the Vehicle” value (LPS-injected mice) was 12%.

With CC(C)=CCc1c(O)cc2oc3cc(O)c(O)c(CC=C(C)C)c3c(=O)c2c1O [Gamma-mangostin, Gamma-Mangostin] the “greatest IL6 inhibition to” value [3, 4] was 53% and the “greatest TNFa inhibition to” value [3, 4] was 45%.

O=c1cc(-c2ccc(O)c(O)c2)oc2cc(O)cc(O)c12 [Luteolin] was tested, and the “greatest IL6 inhibition to” value [3, 5] was 53.7% and the “greatest TNFa inhibition to” value [3, 5] was 45.6%.
